From US10472352B2, “Rac inhibitors” (Geneyus LLC, priority 2017, dated 2019)
Where two headings read alike, the source gives them in different places.

Test system: BT474 breast cancer cells
Assay: BT474 Four (4) Day Cell Viability Assay
Type: cell-based
Settings: BT474, 4 days; for viability at 2.5 µM / viability at 5 µM: Homo sapiens, BT-474, 96 h, read-out: cellular viability; for viability at 2.5 µM: 32661 2.5 μM; for viability at 5 µM: 32661 5 μM
Method: BT474 breast cancer cells that are Estrogen Receptor Positive and HER2+ were grown in 5% cFBS. 5,000 cells were seeded into each well of a 96-well plate and treated with escalating doses of lapatinib, fulvestrant, and 32661.

[1] = fulvestrant 0.0 nM, lapatinib 0.0 nM
[2] = fulvestrant 0.0 nM, lapatinib 6.9 nM
[3] = fulvestrant 0.0 nM, lapatinib 20.6 nM
[4] = fulvestrant 0.0 nM, lapatinib 61.7 nM
[5] = fulvestrant 0.0 nM, lapatinib 185.2 nM
[6] = fulvestrant 0.0 nM, lapatinib 555.6 nM
[7] = fulvestrant 0.0 nM, lapatinib 1666.7 nM
[8] = fulvestrant 0.0 nM, lapatinib 3333.0 nM
[9] = fulvestrant 6.9 nM, lapatinib 0.0 nM
[10] = fulvestrant 6.9 nM, lapatinib 6.9 nM
[11] = fulvestrant 6.9 nM, lapatinib 20.6 nM
[12] = fulvestrant 6.9 nM, lapatinib 61.7 nM
[13] = fulvestrant 6.9 nM, lapatinib 185.2 nM
[14] = fulvestrant 6.9 nM, lapatinib 555.6 nM
[15] = fulvestrant 6.9 nM, lapatinib 1666.7 nM
[16] = fulvestrant 6.9 nM, lapatinib 3333.0 nM
[17] = fulvestrant 20.6 nM, lapatinib 0.0 nM
[18] = fulvestrant 20.6 nM, lapatinib 6.9 nM
[19] = fulvestrant 20.6 nM, lapatinib 20.6 nM
[20] = fulvestrant 20.6 nM, lapatinib 61.7 nM
[21] = fulvestrant 20.6 nM, lapatinib 185.2 nM
[22] = fulvestrant 20.6 nM, lapatinib 555.6 nM
[23] = fulvestrant 20.6 nM, lapatinib 1666.7 nM
[24] = fulvestrant 20.6 nM, lapatinib 3333.0 nM
[25] = fulvestrant 61.7 nM, lapatinib 0.0 nM
[26] = fulvestrant 61.7 nM, lapatinib 6.9 nM
[27] = fulvestrant 61.7 nM, lapatinib 20.6 nM
[28] = fulvestrant 61.7 nM, lapatinib 61.7 nM
[29] = fulvestrant 61.7 nM, lapatinib 185.2 nM
[30] = fulvestrant 61.7 nM, lapatinib 555.6 nM
[31] = fulvestrant 61.7 nM, lapatinib 1666.7 nM
[32] = fulvestrant 61.7 nM, lapatinib 3333.0 nM
[33] = fulvestrant 185.2 nM, lapatinib 0.0 nM
[34] = fulvestrant 185.2 nM, lapatinib 6.9 nM
[35] = fulvestrant 185.2 nM, lapatinib 20.6 nM
[36] = fulvestrant 185.2 nM, lapatinib 61.7 nM
[37] = fulvestrant 185.2 nM, lapatinib 185.2 nM
[38] = fulvestrant 185.2 nM, lapatinib 555.6 nM
[39] = fulvestrant 185.2 nM, lapatinib 1666.7 nM
[40] = fulvestrant 185.2 nM, lapatinib 3333.0 nM
[41] = fulvestrant 555.6 nM, lapatinib 0.0 nM
[42] = fulvestrant 555.6 nM, lapatinib 6.9 nM
[43] = fulvestrant 555.6 nM, lapatinib 20.6 nM
[44] = fulvestrant 555.6 nM, lapatinib 61.7 nM
[45] = fulvestrant 555.6 nM, lapatinib 185.2 nM
[46] = fulvestrant 555.6 nM, lapatinib 555.6 nM
[47] = fulvestrant 555.6 nM, lapatinib 1666.7 nM
[48] = fulvestrant 555.6 nM, lapatinib 3333.0 nM
[49] = fulvestrant 1666.7 nM, lapatinib 0.0 nM
[50] = fulvestrant 1666.7 nM, lapatinib 6.9 nM
[51] = fulvestrant 1666.7 nM, lapatinib 20.6 nM
[52] = fulvestrant 1666.7 nM, lapatinib 61.7 nM
[53] = fulvestrant 1666.7 nM, lapatinib 185.2 nM
[54] = fulvestrant 1666.7 nM, lapatinib 555.6 nM
[55] = fulvestrant 1666.7 nM, lapatinib 1666.7 nM
[56] = fulvestrant 1666.7 nM, lapatinib 3333.0 nM
[57] = fulvestrant 3333.0 nM, lapatinib 0.0 nM
[58] = fulvestrant 3333.0 nM, lapatinib 6.9 nM
[59] = fulvestrant 3333.0 nM, lapatinib 20.6 nM
[60] = fulvestrant 3333.0 nM, lapatinib 61.7 nM
[61] = fulvestrant 3333.0 nM, lapatinib 185.2 nM
[62] = fulvestrant 3333.0 nM, lapatinib 555.6 nM
[63] = fulvestrant 3333.0 nM, lapatinib 1666.7 nM

## FC(F)(F)c1ccc2c(SCCCCCCn3cnc(CN4CCOCC4)c3)ccnc2c1 [Compound 0032661, 4-[[1-[6-[[7-(trifluoromethyl)-4-quinolyl]sulfanyl]hexyl]imidazol-4-yl]methyl]morpholine]
  cellular viability, addition of 32661 to lapatinib and fulvestrant: enhanced the reduction of cellular viability
Listed as 32661
  cellular viability, addition of 32661 to lapatinib and fulvestrant: further enhanced the reduction of cellular viability
[1]
  viability at 2.5 µM: 96%
  viability at 5 µM: 95%
[2]
  viability at 2.5 µM: 85%
  viability at 5 µM: 87%
[3]
  viability at 2.5 µM: 80%
  viability at 5 µM: 84%
[4]
  viability at 2.5 µM: 81%
  viability at 5 µM: 87%
[5]
  viability at 2.5 µM: 83%
  viability at 5 µM: 79%
[6]
  viability at 2.5 µM: 73%
  viability at 5 µM: 67%
[7]
  viability at 2.5 µM: 60%
  viability at 5 µM: 51%
[8]
  viability at 2.5 µM: 23%
  viability at 5 µM: 16%
[9]
  viability at 2.5 µM: 90%
  viability at 5 µM: 93%
[10]
  viability at 2.5 µM: 83%
  viability at 5 µM: 83%
[11]
  viability at 2.5 µM: 80%
  viability at 5 µM: 82%
[12]
  viability at 2.5 µM: 80%
  viability at 5 µM: 82%
[13]
  viability at 2.5 µM: 78%
  viability at 5 µM: 77%
[14]
  viability at 2.5 µM: 66%
  viability at 5 µM: 65%
[15]
  viability at 2.5 µM: 55%
  viability at 5 µM: 42%
[16]
  viability at 2.5 µM: 25%
  viability at 5 µM: 14%
[17]
  viability at 2.5 µM: 87%
  viability at 5 µM: 91%
[18]
  viability at 2.5 µM: 77%
  viability at 5 µM: 80%
[19]
  viability at 2.5 µM: 79%
  viability at 5 µM: 79%
[20]
  viability at 2.5 µM: 79%
  viability at 5 µM: 78%
[21]
  viability at 2.5 µM: 76%
  viability at 5 µM: 71%
[22]
  viability at 2.5 µM: 63%
  viability at 5 µM: 60%
[23]
  viability at 2.5 µM: 54%
  viability at 5 µM: 39%
[24]
  viability at 2.5 µM: 25%
  viability at 5 µM: 11%
[25]
  viability at 2.5 µM: 87%
  viability at 5 µM: 90%
[26]
  viability at 2.5 µM: 78%
  viability at 5 µM: 80%
[27]
  viability at 2.5 µM: 78%
  viability at 5 µM: 78%
[28]
  viability at 2.5 µM: 78%
  viability at 5 µM: 76%
[29]
  viability at 2.5 µM: 73%
  viability at 5 µM: 67%
[30]
  viability at 2.5 µM: 63%
  viability at 5 µM: 60%
[31]
  viability at 2.5 µM: 53%
  viability at 5 µM: 39%
[32]
  viability at 2.5 µM: 21%
  viability at 5 µM: 11%
[33]
  viability at 2.5 µM: 84%
  viability at 5 µM: 90%
[34]
  viability at 2.5 µM: 81%
  viability at 5 µM: 78%
[35]
  viability at 2.5 µM: 82%
  viability at 5 µM: 78%
[36]
  viability at 2.5 µM: 77%
  viability at 5 µM: 76%
[37]
  viability at 2.5 µM: 73%
  viability at 5 µM: 67%
[38]
  viability at 2.5 µM: 63%
  viability at 5 µM: 56%
[39]
  viability at 2.5 µM: 54%
  viability at 5 µM: 35%
[40]
  viability at 2.5 µM: 18%
  viability at 5 µM: 10%
[41]
  viability at 2.5 µM: 83%
  viability at 5 µM: 86%
[42]
  viability at 2.5 µM: 78%
  viability at 5 µM: 79%
[43]
  viability at 2.5 µM: 80%
  viability at 5 µM: 74%
[44]
  viability at 2.5 µM: 79%
  viability at 5 µM: 72%
[45]
  viability at 2.5 µM: 75%
  viability at 5 µM: 56%
[46]
  viability at 2.5 µM: 62%
  viability at 5 µM: 48%
[47]
  viability at 2.5 µM: 48%
  viability at 5 µM: 29%
[48]
  viability at 2.5 µM: 14%
  viability at 5 µM: 6%
[49]
  viability at 2.5 µM: 75%
  viability at 5 µM: 81%
[50]
  viability at 2.5 µM: 72%
  viability at 5 µM: 60%
[51]
  viability at 2.5 µM: 73%
  viability at 5 µM: 60%
[52]
  viability at 2.5 µM: 72%
  viability at 5 µM: 48%
[53]
  viability at 2.5 µM: 59%
  viability at 5 µM: 36%
[54]
  viability at 2.5 µM: 47%
  viability at 5 µM: 29%
[55]
  viability at 2.5 µM: 24%
  viability at 5 µM: 18%
[56]
  viability at 2.5 µM: 7%
  viability at 5 µM: 1%
[57]
  viability at 2.5 µM: 52%
  viability at 5 µM: 56%
[58]
  viability at 2.5 µM: 42%
  viability at 5 µM: 35%
[59]
  viability at 2.5 µM: 34%
  viability at 5 µM: 29%
[60]
  viability at 2.5 µM: 30%
  viability at 5 µM: 21%
[61]
  viability at 2.5 µM: 26%
  viability at 5 µM: 22%
[62]
  viability at 2.5 µM: 22%
  viability at 5 µM: 19%
[63]
  viability at 2.5 µM: 16%
  viability at 5 µM: 11%
Fulvestrant 3333.0 nM, lapatinib 3333.0 nM
  viability at 2.5 µM: 1%
